Measured values: patent US5658885A, “Amidino and guanidino substituted boronic acid inhibitors of trypsin-like enzymes” (The DuPont Merck Pharmaceutical Company, priority 1994, dated 1997)
Counter-ions that a name gives are not always drawn.

Biological target: T1, human thrombin (Homo sapiens, UniProt P00734)
T1 construct: 0.2-0.5 nM human thrombin or human factor Xa; purchased Enzyme Research Laboratories, South Bend, Ind
Experiment: Inhibition of thrombin hydrolysis of chromogenic substrate S2238 (Ki)
Assay type: biochemical
Conditions: S2238, pH 7.5
Experimental: The effectiveness of compounds of the present invention as inhibitors of blood coagulation proteases was determined using purified human proteases and synthetic substrates following procedures similar to those described in Kettner et al. (1990).
For these assays, the rate of enzymatic (thrombin, Factor Xa, and Factor VIIa) hydrolysis of chromogenic substrates (S2238 (H-D-Phe-Pip-Arg-pNA), S2222, and S2288, respectively; Kabi Pharmacia, Franklin, Ohio) was measured both in the absence and presence of compounds of the present invention. […] A decrease in the rate of absorbance change at 405 nm in the presence of inhibitor is indicative of enzyme inhibition. The results of this assay are expressed as inhibitory constant, Ki.
Thrombin and Xa determinations were made in 0.10M sodium phosphate buffer, pH 7.5, containing 0.20M NaCl, and 0.5% PEG 8000. VIIa determinations were made in 0.05M tris buffer, pH 7.6, containing 0.10M NaCl, 4 mM CaCl2, and 0.1% bovine serum albumin.
Reactions were allowed to go for 30 minutes and the velocities (rate of absorbance change vs time) were measured in the time frame of 25-30 minutes. The following relationship was used to calculate Ki values. [formula] where: vo is the velocity of the control in the absence of inhibitor;
vs is the velocity in the presence of inhibitor;
I is the concentration of inhibitor;
Ki is the dissociation constant of the enzyme: inhibitor complex;
S is the concentration of substrate;
Km is the Michaelis constant.

COCCCC(NC(=O)[C@@H]1CCCN1C(=O)[C@@H](Cc1ccccc1)NC(C)C)B1OC2CC3CC(C3(C)C)C2(C)O1 (stereo partly shown) [Example 143, (CH3)2 CH--(D)--Phe--Pro--boroGly[(CH2)3 --OCH3]--C10 H16]
Ki: < 0.5 µM

CC(=O)N[C@H](Cc1ccccc1)C(=O)N1CCC[C@H]1C(=O)NC(CCCCC#N)B1OC2CC3CC(C3(C)C)C2(C)O1 (stereo partly shown) [Example 1, Ac--(D)Phe--Pro--NH--CH[(CH2)4 CN]BO2 C10 H16]
Ki: < 50 µM

CC1(C)C2CC3OB(C(CCCNS(C)(=O)=O)NC(=O)C4CCCN4C(=O)[C@@H](Cc4ccccc4)NCC(=O)O)OC3(C)C1C2 (stereo partly shown) [Example 119, HOOCCH2 --(D)Phe--Pro--boroOrn(N-Methanesulfonyl)-C10 H16.HCl]
Ki: < 0.5 µM

PhSO2 --(D)Phe--Pro--boroArg(CH3)--OH.HCl [Example 58]
Ki: < 0.5 µM

CC(C)(C)OC(=O)NC(Cc1ccccc1)C(=O)N1CCCC1C(=O)NC(CC1CCC(N=C(N)N)CC1)B1OC2CC3CC(C3(C)C)C2(C)O1 (stereo not shown) [Example 128, Boc--(D)Phe--Pro--NH--CH[CH2 (4-guanidino-cyclohexyl)]BO2 --C10 H16]
Ki: < 0.5 µM

CC(C)(C)OC(=O)N[C@H](Cc1ccccc1)C(=O)N1CCCC1C(=O)NC(CC1CCC(O)CC1)B1OC2CC3CC(C3(C)C)C2(C)O1 (stereo partly shown) [Example 127, Boc--(D)Phe--Pro--NH--CH[CH2 (4-hydroxy-cyclohexyl)]BO2 --C10 H16]
Ki: < 0.5 µM

COCCCC(NC(=O)C1CCCN1C(=O)C(Cc1ccccc1)NC(=O)OC(C)(C)C)B1OC2CC3CC(C3(C)C)C2(C)O1 (stereo not shown) [Example 138, Boc--(D)--Phe--Pro--boroGly[(CH2)3 --OCH3]--C10 H16]
Ki: < 0.5 µM

COC(=O)c1cccc(CC(NC(=O)C2CCCN2C(=O)C(N)Cc2ccccc2)B2OC3CC4CC(C4(C)C)C3(C)O2)c1 (stereo not shown) [Example 135, H--(D)Phe--Pro--boroPhe(mCOOMe)--C10 H16.HCl]
Ki: < 0.5 µM

CC1(C)C2CC3OB(C(Cc4cccc(C#N)c4)NC(=O)C4CCCN4C(=O)CSc4ccncc4)OC3(C)C1C2 (stereo not shown) [Example 43, (4-Pyridylthio)acetyl-Pro--boroPhe(m-CN)--C10 H16]
Ki: < 0.5 µM

PhCH2 SO2 --(D)Phe--Pro--boroArg(CH3)--OH.HCl [Example 61]
Ki: < 0.5 µM

Hydrocinnamoyl-Pro--boroIrg(CH2 CH3)--OH.HBr [Example 53]
Ki: < 50 µM

CC(C)(C)OC(=O)N[C@H](Cc1ccccc1)C(=O)N1CCC[C@H]1C(=O)NC(CC1CCC(N)CC1)B1OC2CC3CC(C3(C)C)C2(C)O1 (stereo partly shown) [Example 125, Boc--(D)Phe--Pro--NH--CH[CH2 (4-amino-cyclohexyl)]BO2 --C10 H16]
Ki: < 0.5 µM

HOOCCH2 --(D)Phe--Pro--boroOrn[C(NCN)NHCH3 ]--C10 H16.HCl [Example 106]
Ki: < 0.5 µM

COCCCC(NC(=O)C1CCCN1C(=O)C(Cc1ccccc1)NC(=O)CNC(C)=O)B1OC2CC3CC(C3(C)C)C2(C)O1 (stereo not shown) [Example 144, Ac--Gly--(D)--Phe--Pro--boroGly[(CH2)3 --OCH3]--C10 H16]
Ki: < 0.5 µM

H--(D)Phe--Pro--boroPhe(m-CN)--C10 H16.HCl [Example 18]
Ki: < 0.5 µM

Boc--(D)Phe--Pro--boroOrn(COCH3)--C10 H16 [Example 123]
Ki: < 0.5 µM

COC(=O)C(Cc1cccc(C#N)c1)NC(=O)C1CCCN1C(=O)C(Cc1ccccc1)NC(=O)OC(C)(C)C [Example 130, Boc--(D)Phe--Pro--(S)Phe(mCN)--OMe]
Ki: < 0.5 µM

CC(C)(C)OC(=O)NC(Cc1ccccc1)C(=O)N1CCC1C(=O)NC(Cc1cccc(C#N)c1)B1OC2CC3CC(C3(C)C)C2(C)O1 (stereo not shown) [Example 46, Boc--(D)Phe--Aze--boroPhe(m-CN)--C10 H16]
Ki: < 0.5 µM

CCCS(=O)(=O)NC(Cc1ccccc1)C(=O)N1CCCC1C(=O)NC(CCCNC(=N)NC)B(O)O (stereo not shown) [Example 64, CH3 CH2 CH2 SO2 --(D)Phe--Pro--boroArg(CH3)--OH.HCl]
Ki: < 0.5 µM

CN(CC(=O)NC(Cc1cccc(C#N)c1)B1OC2CC3CC(C3(C)C)C2(C)O1)C(=O)C(Cc1ccccc1)NC(=O)OC(C)(C)C (stereo not shown) [Example 73, Boc--(D)Phe--Sar--boroPhe(m-CN)--C10 H16]
Ki: < 0.5 µM

CC1(C)C2CC3OB(C(CCCNS(C)(=O)=O)NC(=O)[C@@H]4CCCN4C(=O)[C@@H](Cc4ccccc4)NS(=O)(=O)Cc4ccccc4)OC3(C)C1C2 (stereo partly shown) [Example 120, PhCH2 SO2 --(D)Phe--Pro--boroOrn(N-Methanesulfonyl)-C10 H16]
Ki: < 0.5 µM

CC(=O)NC(Cc1ccccc1)C(=O)N1CCCC1C(=O)NC(CCCNC(N)=NC#N)B1OC2CC3CC(C3(C)C)C2(C)O1 (stereo not shown) [Example 15, Ac--(D)Phe--Pro--boroArg(CN)--C10 H16.HCl]
Ki: < 0.5 µM

H--(D)Thiazolylalanine-Pro--boroPhe(m-CN)--C10 H16.HCl [Example 29]
Ki: < 0.5 µM

CN(CC(=O)NC(CCCNC=N)B(O)O)C(=O)C(Cc1ccccc1)NC(=O)OC(C)(C)C (stereo not shown) [Example 70, Boc--(D)Phe--Sar--boroOrn(CH=NH)--OH.HCl]
Ki: < 0.5 µM

Boc--(D)Phe--Pro--NH--CH[4-amino-cyclohexyl]BO2 --C10 H16 [Example 126]
Ki: < 0.5 µM

Ac--Pro--boroPhe(m-CN)--C10 H16 [Example 35]
Ki: < 50 µM

COCCCC(NC(=O)[C@@H]1CCCN1C(=O)[C@@H](Cc1ccccc1)NC(=O)[C@@H]1CCCN1)B1OC2CC3CC(C3(C)C)C2(C)O1 (stereo partly shown) [Example 145, H--Pro--(D)--Phe--Pro--boroGly[(CH2)3 --OCH3]--C10 H16]
Ki: < 0.5 µM

CN(CC(=O)NC(CCCNC=N)B(O)O)C(=O)C(Cc1ccccc1)NS(C)(=O)=O (stereo not shown) [Example 68, Ms--(D)Phe--Sar--boroOrn(CH=NH)--OH.HCI]
Ki: < 0.5 µM

CC(C)(C)OC(=O)NC(Cc1ccccc1)C(=O)N1CCCC1C(=O)NC(Cc1cccc(C#N)c1)B1OC2CC3CC(C3(C)C)C2(C)O1 (stereo not shown) [Example 17, Boc--(D)Phe--Pro--boroPhe(m-CN)--C10 H16]
Ki: < 0.5 µM

CC1(C)C2CC3OB(C(Cc4cccc(C#N)c4)NC(=O)[C@@H]4CCCN4C(=O)/C=C/c4cccnc4)OC3(C)C1C2 (stereo in doubt) [Example 42, trans-3-(3-pyridyl)acryl-Pro--boroPhe(m-CN)--C10 H16]
Ki: < 0.5 µM

Hydrocinnamoyl-Pro--boroIrg(CH3)--OH.HBr [Example 50]
Ki: < 50 µM

CC(=O)NC(Cc1ccccc1)C(=O)N1CCCC1C(=O)NC(Cc1ccc(C#N)cc1)B1OC2CC3CC(C3(C)C)C2(C)O1 (stereo not shown) [Example 16, Ac--(D)Phe--Pro--boroPhe(p-CN)--C10 H16]
Ki: < 0.5 µM

Hydrocinnamoyl-Pro--boroIrg(CH2 CH=CH2)--OH.HBr [Example 49]
Ki: > 500 µM

CCCS(=O)(=O)N[C@H](Cc1ccccc1)C(=O)N1CCC[C@H]1C(=O)N[C@@H](CCCNC=N)B(O)O [Example 63, CH3 CH2 CH2 SO2 --(D)Phe--Pro--boroOrn(CH=NH)--OH.HCl]
Ki: < 0.5 µM

Ac--(D)Phe--Pro--boroIrg(CH3)--OH.HBr [Example 52]
Ki: < 0.5 µM

CC1(C)C2CC3OB(C(CCCNS(C)(=O)=O)NC(=O)[C@@H]4CCCN4C(=O)[C@H](N)Cc4ccccc4)OC3(C)C1C2 (stereo partly shown) [Example 114, H--(D)Phe--Pro--boroOrn(N-Methanesulfonyl)-C10 H16.HCl]
Ki: < 0.5 µM

Boc--(D)Phe--Pro--boroOrn[C(NCN)SCH3 ]--C10 H16 [Example 107]
Ki: < 0.5 µM
